Measurements reported in patent US20090227795A1, “TARGET MOLECULES OF PLADIENOLIDES, COMPOUNDS BINDING TO SUCH TARGET MOLECULES, AND SCREENING METHOD THEREOF” (Eisai R & D Management Co., Ltd., priority 2006, published 2009).

What was measured:
SAP145 or SAP130 = target: T1, SAP145 or SAP130 (Homo sapiens, UniProt O75533+Q15393+Q7RTV0); test: Detection of bound protein by treatment with photoaffinity biotin probe (immunoprecipitation, UV crosslinking, streptavidin-HRP); format: binding; details: 1.5 μM probe, MDA-MB-468 2000 g-pellet, all antibodies, SDS-PAGE
T1 construct: endogenous in cells; host or cells: MDA-MB-468 (nuclear fraction, immunoprecipitate)
Experimental: 2000 g-pellet was prepared from MDA-MB-468 cells by the method described in Example B1. This pellet was suspended in a CSK buffer (300 mM sucrose, 100 mM NaCl, 3 mM MgCl2, 10 mM PIPES, pH=7.0, protease inhibitor cocktail), and the obtained suspension was then treated with the 1.5 μM photoaffinity biotin probe synthesized in Example A3. The suspension was left at rest at 4° C. for 1 hour, and it was then centrifuged at 2000 g at 4° C. for 10 minutes. The supernatant was removed, and a nuclear fraction was then prepared from the obtained precipitate by the same method as that described in Example B1. Thereafter, an immunoprecipitation solution was prepared by the sable method as that described in Example B4.
UV (365 nm and 302 nm) was applied to the obtained immunoprecipitate (agarose resin), and a crosslinking reaction was carried out. An SDS […] buffer was added to the reaction product, and the obtained mixture was then stirred with a vortex, followed by boiling at 99° C. for 10 minutes, so as to elute the immunoprecipitated proteins. The eluant was subjected to SDS-PAGE and blotting onto a PVDF membrane in accordance with common methods. Thereafter, the resultant was treated with streptavidin-HRP, so as to detect probe-bound proteins. […]

SAP130 = target: T2, SAP130 (Homo sapiens, UniProt O75533+Q15393+Q7RTV0); test: Detection of band shift using GFP-fused SAP145 or GFP-fused SAP130 proteins with photoaffinity biotin probe; format: binding; details: 1.5 μM probe, HeLa cells stably expressing GFP-SAP145 or GFP-SAP130, band shift
T2 construct: expressed in transfected cells
Experimental: SAP145 and SAP130, which were considered to be target molecules, were detected in almost the same position on SDS-PAGE. Thus, strains stably expressing a GFP-fused SAP145 or GFP-fused SAP 130 protein were prepared, and an experiment was then […] out using a photoaffinity biotin probe.
A 1.5 μM photoaffinity biotin probe was added to HeLa cells stably expressing GFP-SAP145, and the obtained mixture was then cultured for 1 hour. After washing the cells with PBS, M-PER (PIERCE) was then added thereto, followed by stirring at 4° C. for 1 hour. Thereafter, 1/10 vol. of 1.5 M NaCl-0.5% Tween 20 solution was added to the reaction solution, and the obtained mixture was then treated with a vortex (10 sec.×3). The resultant was centrifuged at 15,000 rpm at 4° C. for 5 minutes (TOMY MX-15). The thus obtained supernatant was filtrated with a 0.45-μm membrane, and the filtrate was used in the following immunoprecipitation experiment. […]
Moreover, using the same samples. SAP145 and SAP130 were detected with the SAP145 antibody and the SAP130 antibody, respectively.
Furthermore, an agarose resin prepared from probe-untreated cells was treated with a probe in the aforementioned experimental operations. Thereafter, UV irradiation and elution of a protein were carried out by the same operations as above, and it was examined whether or not the same band was detected in the obtained sample. […]

HeLa cells = test: Observation of intracellular localization of fluorescent probe and competition assay (microscopy, anti-SC-35 staining); format: cell-based; details: for fluorescence intensity derived from the fluorescent probe after competition (rank order): 1 μM competitor added 1 hour before 1 μM fluorescent probe, lower intensity = stronger competition
Experimental: 1 μM of the fluorescent probe produced in Example A2 was added to HeLa cells, and the obtained mixture was incubated at 37° C. in an incubator for 1 hour. Thereafter, the medium was removed, and the remaining culture was further cultured for 1 hour in a fresh medium without probes and non-specifically adsorbed compounds were washed. The medium was removed again. The remaining culture was then washed with PBS. Thereafter, the cells were immobilized in 3.7% formaldehyde in PBS.
The immobilized cells were well washed with PBS, and were then permeabilized with 0.5% or 1% Triton X-100 in PBS. Thereafter, blocking was carried out with FBS or a blocking solution, and a primary antibody (anti-SC-35 monoclonal antibody; Sigma; S4045) was added to the resultant, so as to carry out a reaction. The reaction product was washed with PBS, and blocking was carried out again with FBS or a blocking solution. A fluorescent-labeled secondary antibody (TexasRed-labeled; Jackson) was added to the resultant, so as to carry out a reaction. The labeled sample was rapidly rinsed with distilled water, and it was then encapsulated into a Prolong antifade reagent (Molecular Probes). Localization of the fluorescent probe and the anti-SC-35 antibody was observed under a fluorescence microscope (DeltaVision, Applied Precision, Inc.) or a confocal microscope (LSM510; Carl Zeiss).
Furthermore, pladienolides or the derivatives thereof were used in the aforementioned experimental operations to carry out a competition assay. That is, before addition of the fluorescent probe, 1 μM pladienolides or the derivatives thereof were added to the cells, and the obtained mixture was then cultured for 1 hour. Thereafter, the same above operations for immobilization and staining were performed on the culture, followed by observation with a microscope, so as to confirm localization of the fluorescent probe.

[1] = system: human breast cancer cells MDA-MB-468; test: Intracellular distribution of tritium probe compound (cell fractionation, cold inhibition, charcoal assay); format: cell-based
Experimental: The tritiated probe compound produced in Example A1 was added to human breast cancer cells MDA-MB-468 (ATCC HTB-132) cultured on a 15-cm dish (>80% confluent), resulting in a concentration of 3 to 30 nM. The obtained mixture was then cultured in an incubator at 37° C. for 1 hour. After removing the medium, the culture was then washed with a Hanks' balanced salt solution (10 ml×2). Then, 3 ml of a 10% glycerol hypotonic buffer (10% glycerol, 20 mM NaCl, 1 mM EDTA, 10 mM Tris-HCl, pH=7.8, protease inhibitor cocktail) was added to the resultant. The obtained mixture was left at rest for a while, and the cells were then recovered using a cell scraper. A cell lysate was prepared using a Dounce homogenizer.
The lysate was centrifuged at 2,000 g at 4° C. for 10 minutes, so as to obtain a supernatant (2000 g-sup.) and a precipitate (2000 g-pellet). 2000 g-sup. was further centrifuged at 100,000 g at 4° C. for 60 minutes, so as to obtain a cytosol fraction as a supernatant, and a membrane fraction as a precipitate. 2000 g-pellet was suspended in 0.5 M NaCl, and the suspension was then left at rest for 30 minutes under cooling on ice, so as to elute a nuclear protein. Thereafter, centrifugation was carried out at 3,000 g at 4° C. for 10 minutes, so as to obtain a nuclear fraction as a supernatant, and a nuclear pellet as a precipitate.
The radioactivity of a tritium probe existing in each fraction was measured by the following method. That is, each of the cytosol fraction and the nuclear fraction was uniformly mixed with Hionic-Fluor (Perkin Elmer). On the other hand, each of the membrane fraction and the nuclear pellet was dissolved in Soluene-350 (Packard) (1 ml), and the obtained solution was then mixed with Hionic-Fluor. The radioactivity of each mixture was measured with a liquid scintillation counter.
At the same time, a radioisotope-non-labeled-pladienolide was used to carry out a cold inhibition experiment. That is, the cells were treated with a pladienolide having a concentration (0.15 to 1.5 μM) that was 50 times higher than the tritium probe treatment concentration, and they were then cultured at 37° C. in an incubator for 1 hour. Thereafter, the culture was treated with a tritium probe, and each fraction was prepared. Then, the radioactivity thereof was measured.
That is, 1/10 vol. (volume ratio) of a 10% activated charcoal suspension was added to each of the cytosol fraction and the nuclear fraction, followed by a treatment with a vortex for several seconds. The resultant was centrifuged at 15,000 rpm at 4° C. for 5 minutes (TOMY mini MX-15), and the radioactivity of the supernatant was measured in the same manner as that described above.

U2 snRNP complex = target: T3, U2 snRNP complex (Homo sapiens, UniProt O75533+Q15393+Q7RTV0); test: Immunoprecipitation experiment of nuclear fraction prepared from tritium probe-treated cells; format: binding; details: 30 nM probe, MDA-MB-468 nuclear fraction, TMG, U1A/U2B″, SM BB′ & D1, SAP155, SAP145, cyclin E antibodies
T3 construct: endogenous in cells; host or cells: MDA-MB-468
Experimental: MDA-MB-468 cells were cultured in the presence of a 30 nM tritium probe for 1 hour. Thereafter, a nuclear fraction was prepared by the same method as that described in Example B1. A dilution buffer was added to the nuclear fraction to a final concentration of 0.15 M NaCl, 0.05% CA-630 and 40 mM tris-HCl (pH=7.5), so as to prepare an immunoprecipitation solution.
To this solution, each of antibodies reacting with splicing factors, transcriptional factors, or molecules associated with such factors were added to a concentration of 1 μg/ml. The obtained mixture was slowly stirred for approximately 12 hours in a low-temperature chamber of 4° C., using a sample rotator. Thereafter, 20 μl of 50% Protein A/G-agarose conjugate suspension was added to the reaction solution, and the obtained mixture was further stirred for 2 hours in the low-temperature chamber.
The agarose resin was recovered, and it was then washed with a washing solution (0.15 M NaCl, 0.05% CA-630, 20 mM tris-HCl, pH=7.5). An SDS sample buffer was added to the resultant solution, and the obtained mixture was then stirred with a vortex. The reaction solution was boiled at 99° C. for 10 minutes, so as to elute the immunoprecipitated protein. The eluant was mixed homogeneously with Hionic-Fluor, and the radioactivity of a tritium probe existing in the eluant was then measured with a liquid scintillation counter.

Compound: CCC(O)C(C)C1OC1CC(C)/C=C/C=C(\C)C1OC(=O)CC(O)CCC(C)(O)C(OC(=O)NCCCC[C@H](NC(=O)c2ccc(C3(C(F)(F)F)NN3)cc2)C(=O)N(C)CCN(C)C(=O)CCCC[C@@H]2SC[C@@H]3NC(=O)N[C@@H]32)/C=C/C1C (stereo partly drawn) [photoaffinity biotin probe, (8E,2E,14E)-3,621-trihydroxy-6,10,12,16,20-pentamethyl-7-(N-((5S)-6-(N-methyl-N-(2-(N-methyl-N-(5-((3aS,4S,6aR)-2-oxohexahydro-1H-thieno[3,4-d]imidazol-4-yl)pentanoyl)amino)ethyl)amino)-6-oxo-5-(N-(4-(3-(trifluoromethyl)-3H-diaziren-3-yl)benzoyl)amino)hexyl)carbamoyloxy)-18,19-epoxytricosa-8,12,14-trien-11-olide]
- position of band of probe-bound protein (SAP145 or SAP130): 130-140 kDa
- protein to which the probe has bound (SAP130): not SAP145 but SAP130

Compound: pladienolide D
- fluorescence intensity derived from the fluorescent probe after competition (rank order) (HeLa cells): pladienolide A >non-labeled tritium probe compound >pladienolides B and D

Compound: CCC(O)C(C)C1OC1CC(C)/C=C/C=C(\C)C1OC(=O)CC(O)CCC(C)(O)C(OC(C)=O)/C=C/C1C (centres unmarked) [pladienolide B, reference compound]
- radioactivity of tritium probe after pre-treatment with non-labeled pladienolide (cold inhibition) ([1]; pre-treatment at 50 times the tritium probe concentration (0.15 to 1.5 μM), 1 hour): almost completely disappeared
- fluorescence intensity derived from the fluorescent probe after competition (rank order) (HeLa cells): pladienolide A >non-labeled tritium probe compound >pladienolides B and D

Compound: (8E,12E,14E)-7-(N—[G-^3H]ethylcarbamoyloxy)-3,6,21-trihydroxy-6,10,12,16,20-pentamethyl-18,19-epoxytricosa-8,12,14-trien-11-olide [tritium probe]
- radioactivity of tritium probe existing in each cell fraction ([1]; MDA-MB-468 cells, probe 3 to 30 nM, 1 hour, cytosol, membrane, nuclear fraction, nuclear pellet): highest radioactivity of the tritium probe was detected in the nuclear fraction
- radioactivity of the cytosol fraction after treatment with activated charcoal ([1]; charcoal assay, cytosol fraction): almost all the radioactivity of the cytosol fraction disappeared
- radioactivity in the nuclear fraction after treatment with activated charcoal ([1]; charcoal assay, nuclear fraction): did not disappear
- radioactivity of tritium probe co-immunoprecipitated with antibodies (U2 snRNP complex): specific radioactivity was observed

Compound: CCC(O)C(C)C1OC1CC(C)C=CC=C(C)C1OC(=O)CC(O)CCC(C)(O)C(OC(=O)NCCOCCOCCNC(=O)CCCCC2=[N+]3C(=Cc4c(C)cc(C)n4[B-]3(F)F)C=C2)C=CC1C (centres unmarked) [fluorescent probe, 7-(N-(2-(2-(2-(N-(5-(5,5-difluoro-7,9-dimethyl-5H-dipyrrolo[1,2-c:2′,1′-f][1,3,2]diazaborinin-4-ium-5-uid-3-yl)pentanoyl)amino)ethoxy)ethoxy)ethyl)carbamoyloxy)-3,6,21-trihydroxy-6,10,12,16,20-pentamethyl-18,19-epoxytricosa-8,12,14-trien-11-olide]
- intracellular localization of fluorescent probe (HeLa cells; 1 μM probe, 1 hour, co-staining with anti-SC-35 antibody): mainly localized in granular structures in the nuclei

Compound: CCC(O)C(C)C1OC1CC(C)/C=C/C=C(\C)C1OC(=O)CC(O)CCC(C)(O)C(O)/C=C/C1C (centres unmarked) [pladienolide A]
- fluorescence intensity derived from the fluorescent probe after competition (rank order) (HeLa cells): pladienolide A >non-labeled tritium probe compound >pladienolides B and D
